The record followed here is patent US9549978B2, “Amino acid sequences for controlling pathogens” (CENTRO DE INGENIERIA GENETICA Y BIOTECHNOLOGIA, priority 2011, dated 2017).

The test system of one experiment is Aeromonas hydrophila. As to the kind of experiment: Resistance to A. hydrophila challenge in tilapia, peptides by intraperitoneal injection. In kind it is in vivo, tilapia (O. niloticus). The conditions noted are these: LD50 challenge, mortality recorded 7 days, compared to PBS group. As for the experimental part: We proceeded to evaluate the utility of antimicrobial peptides to enhance disease resistance in vivo. In a first test, we used 130 tilapias (O. niloticus) with a body weight of 10 g, which were randomly distributed in 13 experimental groups of ten animals per group. This assay was performed in order to determine the minimum time of treatment required to enhance the survival of fish against challenge with A. hydrophila. Each peptide was administered at a concentration of 1 μg per fish by intraperitoneal injection, for 2, 4, 8 and 15 days. An additional group was placed which PBS was administered as a control. The experimental groups were:
After the time of peptide administration, we performed a challenge test by intraperitoneal injection of the median lethal dose (LD50) of A. hydrophila, and mortality was recorded during 7 days. We calculated the relative percent of survival (RPS) as: RPS (%)=(% mortality controls−% mortality treated)/(% mortality controls)×100
A second test was performed to determine the optimal dose of peptide required to increase the survival of the fish following challenge with A. hydrophila. We used 130 tilapias (O. niloticus), with a body weight of about 10 g, which were randomly distributed in 13 experimental groups of 10 animals each. Each peptide was administered at a concentration of 0.5, 1, 5 and 10 μg per fish for 15 days. The experimental groups were:
After 15 days of peptide administration, we performed a challenge test by is intraperitoneal injection of the LD50 of A. hydrophila, and mortality was recorded during 7 days. RPS was calculated as described above.

The conditions of experiment [1]: read-out: EC50 (LPS binding/neutralization); 0.5 EU/ml LPS, 37° C., 30 min, LAL. As for the experimental part:
Besides the antimicrobial activity and the possibility of increase disease resistance, we studied the ability of antimicrobial peptides of the present invention to neutralize LPS, by the Limulus amebocyte lysate (LAL) test. This assay detects the presence of free LPS unneutralized. Various concentrations of peptides were incubated with 0.5 EU/ml of LPS at 37° C. for 30 min. LPS alone was used as positive control of the assay. Subsequently, were added 100 μL of the mixture to equal volume of LAL reagent. The kinetic of the turbidity was measured using the equipment Tube Reader ATi-321 (Lab Kinetics, UK).

Experiment [2] deals with Staphylococcus aureus (Gram+). Briefly: Microdilution antimicrobial activity (MIC/IC50). It is filed as cell-based. The conditions noted are these: for MIC: 18 h, Mueller Hinton broth; for IC50: read-out: IC50 (peptide concentration that produces 50% of bacterial growth inhibition). As for the experimental part: (§1) The peptides of the invention were also obtained by chemical synthesis using methods known to those skilled in this technical field. The antimicrobial activity of the peptides was determined by the microdilution method. To determine the minimum inhibitory concentration (MIC), each peptide was serially diluted 1:2. Ten microliters of each diluted peptide were incubated with 90 μL of the bacteria or yeast suspension (5×10^5 CFU (colony forming units) per mL) in Mueller Hinton broth (bacteria) or Sabouraund broth (fungi) and incubated for 18 h at 28° C. (for fish pathogens and fungi) or 37° C. (for mammalian pathogens). The MIC is defined as the lowest peptide concentration at which inhibition of bacterial growth occurs. All assays were performed in triplicate, and culture medium (without microorganism) and microorganisms to which no peptide was added were used as controls.

Experiment [3] concerns Edwardsiella tarda (Gram−). As to the kind of experiment: Microdilution antimicrobial activity (MIC/IC50). The conditions noted are these: for IC50: read-out: IC50 (peptide concentration that produces 50% of bacterial growth inhibition). In kind it is cell-based. The procedure: as §1
On the technique in general: Broth dilution looks for growth in wells or tubes with falling amounts of substance.

Another experiment has as its system Vibrio sp. (Gram−). Briefly: Microdilution antimicrobial activity (MIC/IC50). It is filed as cell-based. The following applies: for IC50: read-out: IC50 (peptide concentration that produces 50% of bacterial growth inhibition). The procedure:
as §1

In experiment [4] the test system is Pseudomonas aeuroginosa (Gram−). As to the kind of experiment: Microdilution antimicrobial activity (MIC/IC50). In kind it is cell-based. The conditions noted are these: for IC50: read-out: IC50 (peptide concentration that produces 50% of bacterial growth inhibition). As for the experimental part:
as §1

A further experiment relates to E.coli (Gram−). As to the kind of experiment: Microdilution antimicrobial activity (MIC/IC50). It is filed as cell-based. The conditions noted are these: for IC50: read-out: IC50 (peptide concentration that produces 50% of bacterial growth inhibition). As for the experimental part:
as §1

The test system of experiment [5] is Bacillus subtilis (Gram+). As to the kind of experiment: Microdilution antimicrobial activity (MIC/IC50). The following applies: for IC50: read-out: IC50 (peptide concentration that produces 50% of bacterial growth inhibition). It is filed as cell-based. The procedure:
as §1

The test system of a further experiment is A. hydrophila (Gram−). As to the kind of experiment: Microdilution antimicrobial activity (MIC/IC50). It is filed as cell-based. The procedure:
as §1

Experiment [6] deals with Candida albicans (fungus). Briefly: Microdilution antimicrobial activity (MIC/IC50). It is filed as cell-based. The conditions noted are these: for MIC: Sabouraund broth, 28° C.; for IC50: read-out: IC50 (peptide concentration that produces 50% of bacterial growth inhibition). The procedure: as §1
The subject of experiment [7] is OVA. Briefly: Cytokine secretion by OVA-stimulated splenocytes of immunized mice, ELISA. In kind it is in vivo, BALB/c mice. The procedure:
FIG. 8. IFN-γ secretion by spleen cells isolated from immunized animals. […] Bars represent the concentration of IFN-γ±standard deviation (n=5). Statistical analysis of the data was performed by ANOVA test and Bonferroni's multiple comparison test (*: p<0.05, ***:p<0.001).
Animals were immunized on days 0 and 14, and blood extractions were performed on days 0, 14 and 21. The serums of animals were used for determination of specific antibody titers (total IgG, IgG1 and IgG2a). At 59 days from the beginning of the experiment was extracted the spleen from the mice to determine the cellular immune response against the antigen OVA. The spleen was extracted under aseptic conditions and the splenocytes were isolated and were seeded 2.5×10^5 cells, at a cell concentration of 2×10^6 cells/mL in 96-well round bottom plate. Cells were stimulated with Concanavalin A (5 μg/ml) or OVA (10 μg/mL) and incubated at 37° C., 5% CO2 for 4 days. Culture supernatants were collected and used for analysis of the levels of interleukin-4 and interferon-γ by ELISA.
In general terms: An ELISA detects its analyte on a solid surface through an enzyme-linked reagent.

For a further experiment, the system named is MY32. Briefly: Co-immunization with MY32 antigen in tilapia, IgM titers by ELISA. It is filed as in vivo, tilapia (O. niloticus). The conditions noted are these: MY32 1 μg/g + peptide 10 μg/animal, adjuvanted in Montanide 888; p<0.05. As for the experimental part:
FIG. 9. IgM titers induced by immunization of tilapia (O. niloticus) with MY32 protein co-administered with the antimicrobial peptide Oreochromicin I. Fish (10 fish/group) were immunized by intraperitoneal injection on days 0 and 14. The negative control group was injected with 0.3 mL of PBS. The humoral immune response specific for MY32 was analyzed at 14, 21 and 28 days after the first immunization. The IgM antibody titers specific for MY32 were determined by ELISA. Bars represent the IgM titer±standard error (n=10). Statistical analysis of the data was performed by ANOVA and the Newman-Keuls multiple comparison test (*indicates p<0.05).
To assess the ability of the peptide Oreochromicin I as molecular adjuvant in tilapia was used as vaccine antigen the protein MY32, previously known (Carpio et al. (2011) Vaccine 29: 2810-2820).
Six experimental groups were formed of 10 tilapias (O. niloticus) each with an s average weight of 45 g. The route of administration was intraperitoneal, the immunogen was applied in an injection volume of 0.3 mL. The experimental groups were:
The animals were immunized on days 0 and 14, and blood extractions were performed on days 0, 14, 21 and 28. The serums of the animals were used for the determination of IgM specific antibody titers.

Experiment [8] deals with OVA. Briefly: Co-immunization with OVA in mice, second immunization schedule, antibody titers by ELISA. It is filed as in vivo, BALB/c mice. The procedure:
FIG. 7. Titers of total immunoglobulin G (IgG) (A), IgG1 and IgG2a (B) induced in mice by immunization with OVA co-administered with the peptides Oreochromicin I, Oreochromicin II and Oreochromicin III. Male Balb/c mice (8/group) were immunized by intraperitoneal injection on days 0 and 14 with OVA alone (5 μg/animal) or in combination with peptides at the doses of 0.238×10^20 molecules/animal (equivalent to 0.1, 0.12 and 0.14 μg/animal for Oreochromicina I, II and III, respectively) and 2.38×10^20 molecules/animal (equivalent to 1, 1.2 and 1.4 μg/animal for Oreochromicina I, II and III, respectively). The negative control group was injected with 0.1 mL of PBS. The OVA-specific humoral immune response (total IgG) was tested at 14 and 21 days after the first immunization. IgG1 and IgG2a antibody titers were analyzed at 21 days after the first immunization. The OVA-specific antibody titers were determined by ELISA. (A) Total IgG titers. Bars represent the IgG titer standard error (n=8). Statistical analysis was performed using a Kruskal-Wallis test and the Dunn multiple comparison test. Asterisks represent significant differences with the PBS group (* indicates p<0.05, ***indicates p<0.001). (B) IgG1 and IgG2a titers. Bars represent the antibody titer±standard error (n=8). Statistical analysis was performed using Mann Whitney test (*denotes p<0.05).
64 BALB/c male mice were selected, which were 6 weeks old, and were separated into 8 experimental groups of 8 mice each. Administration of the immunogens was is conducted by intraperitoneal injection in a volume of 0.1 mL. The antimicrobial peptides were administered in equimolar amounts (0.238×10^20 molecules and 2.38×10^20 molecules). The experimental groups were:
Animals were immunized on days 0 and 14, and blood extractions were performed on days 0, 14 and 21. The serums of animals were used for determination of specific antibody titers (total IgG, IgG1 and IgG2a). At 59 days from the beginning of the experiment was extracted the spleen from the mice to determine the cellular immune response against the antigen OVA. […]

Consider “FIHHIIGGLFSAGKAIHRLIRRRRR [Oreochromicin II, also recombinant or chemically synthesized]”, for which, in the experiment on Aeromonas hydrophila (1 μg per fish i.p. for 8 days), the “increase in survival (RPS, relative percent of survival)” value turned out to be 48%. Further, the EC50 in experiment [1] amounted to 1410 nM. Besides, the MIC entry in [2] is listed as “MIC = 5 μM”; in experiment [3] it was “MIC = 20 μM”; with Vibrio sp. (Gram−), “MIC = 15 μM”; in experiment [4], “MIC = 6.67 μM”; with E.coli (Gram−) it was “MIC = 5 μM”; in experiment [5] it was “MIC = 1.7 μM”. Also, the values for the MIC result (in the experiment with A. hydrophila (Gram−); in [6]) were “MIC = 160 μM” and “MIC = 26.7 μM”, respectively. In addition, the IC50 in experiment [2] turned out to be 2020 nM; in experiment [3], 2.08 µM; in the experiment on Vibrio sp. (Gram−), 2.5 µM; in experiment [4], 3.75 µM; in the experiment on E.coli (Gram−), 2290 nM; in experiment [5], 589 nM. For the same sequence, the IC50 with A. hydrophila (Gram−) (read-out: IC50 (peptide concentration that produces 50% of bacterial growth inhibition)) turned out to be 30.4 µM; in experiment [6], 12.9 µM. Besides, the “levels of secretion of IFN-γ vs OVA or PBS alone” value in the experiment on OVA [7] (splenocytes stimulated with OVA, peptide 1.2 μg/animal, p<0.05) is given as “significantly higher”.
Regarding “FIHHIIGGLFSVGKHIHGLIHGH [Oreochromicin I, also recombinant or chemically synthesized]”, the “increase in survival (RPS, relative percent of survival)” value with Aeromonas hydrophila (1 μg per fish i.p. for 15 days) amounted to 45%. In experiment [1], the EC50 came to 1230 nM. Besides, the “specific IgM titer against MY32 vs PBS, MY32 and MY32 + peptide 10 μg/fish” value with MY32 is “statistically superior”. In addition, the MIC entry is listed as “MIC = 5 μM” in experiment [2]; “MIC = 160 μM” in experiment [3]; “MIC = 80 μM” against Vibrio sp. (Gram−); “MIC = 35 μM” in experiment [4]; “MIC = 6.7 μM” against E.coli (Gram−); “MIC = 3 μM” in [5]. The MIC result is “Did not inhibit” against A. hydrophila (Gram−) and “MIC = 20 μM” in experiment [6]. Also, the IC50 was 2800 nM in experiment [2]; 11.1 µM in experiment [3]; 7.45 µM with Vibrio sp. (Gram−); 29.4 µM in experiment [4]; 2960 nM in the experiment with E.coli (Gram−); 1370 nM in experiment [5]. Also, the IC50 in experiment [6] amounted to 10.3 µM. Besides, the “titers of specific IgG2a against OVA vs OVA alone” value with OVA [8] (OVA 5 μg + peptide 1 μg/animal, 21 days after first immunization, p<0.05) is reported as “significantly greater”. For the same sequence, the “specific total IgG titer to OVA vs negative control group” value in the experiment on OVA [8] (OVA 5 μg + peptide 1 μg/animal, p<0.001) was “statistically superior”.
Regarding “IWDAIFHGAKHFLHRLVNPGGKDAVKDVQQKQ [Oreochromicin III, also recombinant or chemically synthesized]”, in the experiment on Aeromonas hydrophila (1 μg per fish i.p. for 15 days), the “increase in survival (RPS, relative percent of survival)” value is 45%. Moreover, in [1], the EC50 came out at 2990 nM. The MIC entry in [2] is on record as “Did not inhibit”; in experiment [3] it was “MIC = 160 μM”; in [4], “Did not inhibit”; in the experiment on E.coli (Gram−) it was “Did not inhibit”; in [5], “MIC = 106 μM”; in the experiment with A. hydrophila (Gram−), “Did not inhibit”. Further, the MIC result in [6] was “MIC = 40 μM”. The IC50 came to 37 µM in experiment [3], 67.4 µM in the experiment on Vibrio sp. (Gram−), 19200 nM in experiment [5] and 14.1 µM in experiment [6]. In the experiment with OVA [7] (splenocytes stimulated with OVA 10 μg/mL, dose dependent, p<0.001), the “levels of IFN-γ vs OVA or PBS alone” value is on record as “significantly higher”. Besides, the “total IgG titers compared to the negative control group” value in the experiment on OVA [8] (OVA 5 μg + peptide 1.4 μg/animal, p<0.05) is “statistically significant differences”.
